Measured values: the supplement of paper PMC10307832

What was measured:
Assay in all cases: relative viability (nuclei count vs DMSO), 5 days (fraction); higher = more cells survive
Carboplatin + Tozasertib = compound: C1CC(C1)(C(=O)O)C(=O)O.[NH2-].[NH2-].[Pt+2] [Carboplatin] + Cc1cc(Nc2cc(N3CCN(C)CC3)nc(Sc3ccc(NC(=O)C4CC4)cc3)n2)n[nH]1 [Tozasertib] (partner 0.1 µM)
Method in brief: (§1)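 Relative viability divides the nuclei count in treated wells by that in vehicle wells. Lung cancer cell lines were seeded in 1536-well plates, dosed by pin tool the next day, and fixed and stained after 5 days in one step with final 0.05% Triton X-100, 1% formaldehyde and 1 ug/ml Hoechst. Dosing was a single drug or a fixed anchor-drug dose plus five library-drug doses (not always all listed) in √10 steps, and values are medians of duplicate plates imaged at 4×.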

MLN4924 + Bortezomib = compound: NS(=O)(=O)OC[C@@H]1C[C@@H](n2ccc3c(N[C@H]4CCc5ccccc54)ncnc32)C[C@@H]1O [MLN4924] + CC(C)C[C@H](NC(=O)[C@H](Cc1ccccc1)NC(=O)c1cnccn1)B(O)O [Bortezomib] (partner 0.002 µM)
Method in brief: as §1

MLN4924 + Pictilisib = compound: NS(=O)(=O)OC[C@@H]1C[C@@H](n2ccc3c(N[C@H]4CCc5ccccc54)ncnc32)C[C@@H]1O [MLN4924] + CS(=O)(=O)N1CCN(Cc2cc3nc(-c4cccc5[nH]ncc45)nc(N4CCOCC4)c3s2)CC1 [Pictilisib] (partner 1 µM)
Method in brief: as §1

MLN4924 + Olaparib = compound: NS(=O)(=O)OC[C@@H]1C[C@@H](n2ccc3c(N[C@H]4CCc5ccccc54)ncnc32)C[C@@H]1O [MLN4924] + O=C(c1cc(Cc2n[nH]c(=O)c3ccccc23)ccc1F)N1CCN(C(=O)C2CC2)CC1 [Olaparib] (partner 8 µM)
Method in brief: as §1

LCLC-103H
relative viability (Carboplatin + Tozasertib; first compound 0.08 µM): 0.517 | relative viability (Carboplatin + Tozasertib; first compound 0.253 µM): 0.466 | relative viability (Carboplatin + Tozasertib; first compound 0.8 µM): 0.439 | relative viability (Carboplatin + Tozasertib; first compound 2.53 µM): 0.532 | relative viability (Carboplatin + Tozasertib; first compound 8 µM): 0.473 | relative viability (MLN4924 + Bortezomib; first compound 0.04 µM): 1.04 | relative viability (MLN4924 + Bortezomib; first compound 0.1265 µM): 1.16 | relative viability (MLN4924 + Bortezomib; first compound 0.4 µM): 0.955 | relative viability (MLN4924 + Bortezomib; first compound 1.265 µM): 0.346 | relative viability (MLN4924 + Bortezomib; first compound 4 µM): 0.301 | relative viability (MLN4924 + Pictilisib; first compound 0.04 µM): 0.757 | relative viability (MLN4924 + Pictilisib; first compound 0.1265 µM): 0.697 | relative viability (MLN4924 + Pictilisib; first compound 0.4 µM): 0.788 | relative viability (MLN4924 + Pictilisib; first compound 1.265 µM): 0.238 | relative viability (MLN4924 + Pictilisib; first compound 4 µM): 0.233 | relative viability (MLN4924 + Olaparib; first compound 0.04 µM): 0.717 | relative viability (MLN4924 + Olaparib; first compound 0.1265 µM): 0.615 | relative viability (MLN4924 + Olaparib; first compound 0.4 µM): 0.665 | relative viability (MLN4924 + Olaparib; first compound 1.265 µM): 0.292 | relative viability (MLN4924 + Olaparib; first compound 4 µM): 0.293

EMC-BAC-2
relative viability (Carboplatin + Tozasertib; first compound 0.08 µM): 0.313 | relative viability (Carboplatin + Tozasertib; first compound 0.253 µM): 0.292 | relative viability (Carboplatin + Tozasertib; first compound 0.8 µM): 0.275 | relative viability (Carboplatin + Tozasertib; first compound 2.53 µM): 0.266 | relative viability (Carboplatin + Tozasertib; first compound 8 µM): 0.326 | relative viability (MLN4924 + Bortezomib; first compound 0.04 µM): 0.96 | relative viability (MLN4924 + Bortezomib; first compound 0.1265 µM): 0.842 | relative viability (MLN4924 + Bortezomib; first compound 0.4 µM): 0.274 | relative viability (MLN4924 + Bortezomib; first compound 1.265 µM): 0.162 | relative viability (MLN4924 + Bortezomib; first compound 4 µM): 0.155 | relative viability (MLN4924 + Pictilisib; first compound 0.04 µM): 0.242 | relative viability (MLN4924 + Pictilisib; first compound 0.1265 µM): 0.569 | relative viability (MLN4924 + Pictilisib; first compound 0.4 µM): 0.213 | relative viability (MLN4924 + Pictilisib; first compound 1.265 µM): 0.155 | relative viability (MLN4924 + Pictilisib; first compound 4 µM): 0.192 | relative viability (MLN4924 + Olaparib; first compound 0.04 µM): 0.397 | relative viability (MLN4924 + Olaparib; first compound 0.1265 µM): 0.286 | relative viability (MLN4924 + Olaparib; first compound 0.4 µM): 0.225 | relative viability (MLN4924 + Olaparib; first compound 1.265 µM): 0.214 | relative viability (MLN4924 + Olaparib; first compound 4 µM): 0.241

NCI-H2228
relative viability (Carboplatin + Tozasertib; first compound 0.08 µM): 0.276 | relative viability (Carboplatin + Tozasertib; first compound 0.253 µM): 0.252 | relative viability (Carboplatin + Tozasertib; first compound 0.8 µM): 0.246 | relative viability (Carboplatin + Tozasertib; first compound 2.53 µM): 0.225 | relative viability (Carboplatin + Tozasertib; first compound 8 µM): 0.209 | relative viability (MLN4924 + Bortezomib; first compound 0.1265 µM): 1.03 | relative viability (MLN4924 + Bortezomib; first compound 0.4 µM): 0.309 | relative viability (MLN4924 + Bortezomib; first compound 1.265 µM): 0.121 | relative viability (MLN4924 + Bortezomib; first compound 4 µM): 0.166 | relative viability (MLN4924 + Pictilisib; first compound 0.1265 µM): 0.504 | relative viability (MLN4924 + Pictilisib; first compound 0.4 µM): 0.101 | relative viability (MLN4924 + Pictilisib; first compound 1.265 µM): 0.111 | relative viability (MLN4924 + Pictilisib; first compound 4 µM): 0.196 | relative viability (MLN4924 + Olaparib; first compound 0.04 µM): 0.486 | relative viability (MLN4924 + Olaparib; first compound 0.1265 µM): 0.532 | relative viability (MLN4924 + Olaparib; first compound 0.4 µM): 0.279 | relative viability (MLN4924 + Olaparib; first compound 1.265 µM): 0.109 | relative viability (MLN4924 + Olaparib; first compound 4 µM): 0.162

HOP-62
relative viability (Carboplatin + Tozasertib; first compound 0.08 µM): 0.377 | relative viability (Carboplatin + Tozasertib; first compound 0.253 µM): 0.387 | relative viability (Carboplatin + Tozasertib; first compound 0.8 µM): 0.378 | relative viability (Carboplatin + Tozasertib; first compound 2.53 µM): 0.378 | relative viability (Carboplatin + Tozasertib; first compound 8 µM): 0.368 | relative viability (MLN4924 + Bortezomib; first compound 0.04 µM): 0.392 | relative viability (MLN4924 + Bortezomib; first compound 0.1265 µM): 0.402 | relative viability (MLN4924 + Bortezomib; first compound 0.4 µM): 0.117 | relative viability (MLN4924 + Bortezomib; first compound 1.265 µM): 0.0531 | relative viability (MLN4924 + Bortezomib; first compound 4 µM): 0.0923 | relative viability (MLN4924 + Pictilisib; first compound 0.04 µM): 0.521 | relative viability (MLN4924 + Pictilisib; first compound 0.1265 µM): 0.428 | relative viability (MLN4924 + Pictilisib; first compound 0.4 µM): 0.0949 | relative viability (MLN4924 + Pictilisib; first compound 1.265 µM): 0.0537 | relative viability (MLN4924 + Pictilisib; first compound 4 µM): 0.103 | relative viability (MLN4924 + Olaparib; first compound 0.04 µM): 0.205 | relative viability (MLN4924 + Olaparib; first compound 0.1265 µM): 0.303 | relative viability (MLN4924 + Olaparib; first compound 0.4 µM): 0.0801 | relative viability (MLN4924 + Olaparib; first compound 1.265 µM): 0.0633 | relative viability (MLN4924 + Olaparib; first compound 4 µM): 0.0555
